Molecules are shown by their SMILES.

The experiment deals with P. falciparum 3D7 growth, pLDH absorbance. As to the kind of experiment: blood-stage malaria parasite growth potency – strain 3D7, dose response (AID 2305).
In general, IC50 refers to the concentration that inhibits the measured activity by half. Low readings indicate greater potency, high ones weaker potency. Turning to `S=C(NCCN1CCOCC1)Nc1ccccc1`, the IC50 amounted to 1.02 µM.

`CCN1CCCC1CNC(=O)c1cc2c(-c3ccc(Cl)cc3)nn(C)c2s1` (stereo not given) showed an IC50 of 0.79 µM.

For `O=C(Nc1nc(-c2ccccn2)cc2ccccc12)c1cccc(Cl)c1`, the IC50 is 0.75 µM.

Take `CN(CC(=O)N1CCN(S(=O)(=O)c2cccc(Cl)c2)CC1CN1CCCC1)c1ccc(Cl)c(Cl)c1` (stereo not given): the half-inhibitory concentration (IC50) amounted to 1.24 µM.

For the compound `CC(C)(C)c1ccc(NC(=O)c2cccc(CN3CCCN(Cc4cccc(O)c4)CC3)c2)cc1`, the IC50 amounted to 0.55 µM.

The compound `CCn1cc(CN2CCCC(C(=O)Nc3ccc(-c4nc5ccccc5[nH]4)cc3)C2)cn1` (stereo not given) gave an IC50 of 0.93 µM.

`COc1ccc(S(=O)(=O)Nc2cc(Br)cc3c2OCCC3)cc1N1CCN(C(=O)C(Cl)(Cl)Cl)CC1`: the IC50 worked out at 0.87 µM.

Regarding `CCC(C)(C)c1ccc(OCCCC(=O)Nc2ccc(Cl)c([N+](=O)[O-])c2)c(C(C)(C)CC)c1`, the IC50 worked out at 0.97 µM.

The compound `CCc1ccc(CN2CCC(CNC(=O)c3cc(-c4cccc(C(F)(F)F)c4)cs3)C2)cc1` (stereo not given) registered an IC50 of 0.75 µM.

In turn, `CC1CN=C(Nc2ncc(Cl)cc2Cl)N1` (stereo not given) showed an IC50 of 0.24 µM.

`CC(=O)Nc1cccc(C(=O)Nc2cccc(-c3ccc(-c4nc5ccc(F)cc5[nH]4)cc3)c2)c1` came in with an IC50 of 0.76 µM.

`Cc1[nH]c(C)c(-c2ccc(-c3ccc(Cl)cc3)cc2)c(=O)c1Cl`: the IC50 came out at 0.21 µM.

Consider `CCCc1cc(O)c2c3c(c(=O)oc2c1)CN(C)CC3`, for which the IC50 was 0.87 µM.

`COc1cc(NC(=O)N2CCc3ccc(OCCN(C(C)C)C(C)C)cc32)cc(C(F)(F)F)c1` gave an IC50 of 0.19 µM.

Compound `O=C(Nc1cccc(CN2CCN(C(=O)c3ccccc3)CC2)c1)c1cccs1` registered an IC50 of 0.31 µM.

Compound `S=c1nc(-c2ccccc2)n2ccsc2n1` displayed an IC50 of 0.18 µM.

`O=C(Cc1cnc[nH]1)Nc1ccc(-c2cccc(-c3nc4ccc(C(F)(F)F)cc4[nH]3)c2)cc1`: the IC50 was 0.74 µM.

As for `COc1cccc(C(=O)N2CCOC(CCN3CCC(c4ccccc4)CC3)(c3ccc(Cl)c(Cl)c3)C2)c1` (stereo not given), the IC50 came to 0.51 µM.

`COc1cc2nc(NCC3CCCCC3)nc(NCc3ccccc3)c2cc1OC` displayed an IC50 of 0.14 µM.

On to `O=C(Nc1ccc(Cl)c(C(F)(F)F)c1)Nc1ccc(Cl)c(C(F)(F)F)c1`, for which the IC50 was found to be 0.77 µM.

For the compound `CN1CCN(c2nc(NCCc3ccc(O)cc3)nc(NCc3ccccc3-c3ccc(C(F)(F)F)cc3)n2)CC1`, the IC50 turned out to be 0.97 µM.

Take `CN(C)c1ccc2c(c1)Sc1cc(N(C)C)ccc1N2C(=O)c1cccc(C(=O)O)c1`: the IC50 is 0.18 µM.

Regarding `Nc1cccc(CNCc2ccc(-c3cccc(-c4nc5ccc(F)cc5[nH]4)c3)cc2)c1`, the IC50 was 0.21 µM.

`Fc1ccc(C(OCC2CCCN(Cc3cccc4cccnc34)C2)c2ccc(F)cc2)cc1` (stereo not given) gave an IC50 of 0.7 µM.

The compound `Cc1c(C(=O)N2CCc3cc4nccc(N5CCN6CCC[C@H]6C5)c4cc32)cnn1-c1ccc(C#N)cc1` came in with an IC50 of 0.99 µM.

`O=[N+]([O-])c1ccc(Nc2nc(NN=Cc3cc(Cl)cc(Cl)c3O)nc(Nc3ccccc3)n2)cc1` gave an IC50 of 0.67 µM.

Consider `O=c1cc(NCCCNCc2ccc(Cl)c(Cl)c2)[nH]c2ccc(Cl)cc12`, for which the IC50 was found to be 0.34 µM.

Compound `CCOC(=O)CCCN1C(=O)CN=C(c2ccccc2)c2cc(Cl)ccc21` had an IC50 of 0.78 µM.

In turn, `CC(C)c1ccc(CN2CCCCC(NC(=O)c3cc(-c4cccc(F)c4)cs3)C2)cc1` (stereo not given) gave an IC50 of 0.94 µM.

In turn, `COc1ccc(C=Cc2cc(N)c3ccccc3n2)cc1Br` yielded an IC50 of 0.71 µM.

Consider `C=CCN1C(=O)CN(S(=O)(=O)c2ccc(-n3nc(C)cc3C)cc2)C1=S`, for which the IC50 was 0.94 µM.

As to `COc1ccc(NC(=O)[C@H](Cc2ccccc2)Nc2cc(C)nc(NCCN3CCCC3)n2)cc1`, the IC50 was 1.39 µM.

`CO/C(=C\C=C\c1cc2cc(Cl)c(Cl)cc2[nH]1)C(=O)NCCCN1CCN(c2cccc(OCC(=O)Nc3ccccc3)c2)CC1`: the IC50 stood at 0.5 µM.

In the case of `Cc1ccc2nc(C)cc(NN=Cc3ccccc3F)c2c1`, the IC50 is 0.17 µM.

The compound `Cc1ccc(CC(C)NCC(O)c2cccc(C#N)c2)cc1` (stereo not given) yielded an IC50 of 0.94 µM.

Regarding `Cc1cccc2[nH]c(-c3ccc(-c4cccc(NC(=O)Nc5ccc(F)c(F)c5F)c4)cc3)nc12`, the IC50 stood at 0.34 µM.

In the case of `COc1ccc2nc(N3CCN(C(=O)OC(C)(C)C)CC3)nc(NCCCc3ccccc3)c2c1`, the IC50 stood at 0.69 µM.

The compound `O=C(Nc1cccc(-c2ccc(CN3CCCC3)cc2)c1)c1cccc(Cl)c1` returned an IC50 of 0.43 µM.

In turn, `Nc1nc(N)c2c(Oc3cccnc3)cccc2n1` gave an IC50 of 0.89 µM.

Take `CC(C)(Oc1ccc(Cl)cc1)C(=O)NCCC1CCN(CCCCCNC(=O)/C=C/c2ccc(Cl)c(Cl)c2)CC1`: the IC50 amounted to 0.94 µM.

`CCCN(Cc1nnc(-c2cccs2)o1)C(=O)CSc1nnnn1-c1cc(C)cc(C)c1` had an IC50 of 0.5 µM.

As to `COc1ccc(CCNCCCCCCNCCc2ccc(-c3ccccc3)cc2)cc1OC`, the IC50 was determined as 0.96 µM.

In turn, `Clc1ccc(-c2csc3ncnc(Cl)c23)cc1` displayed an IC50 of 0.46 µM.

As to `Cc1noc(C)c1-c1ccc2c(Nc3ccccc3C(C)(C)C)c(C(=O)NCc3ccc(C(F)(F)F)cc3)cnc2c1`, the IC50 is 0.76 µM.

Consider `COc1cc2nccc(Nc3ccc4c(cnn4Cc4cccc(F)c4)c3)c2cc1OC`, for which the IC50 came out at 0.24 µM.

Values taken from PubChem BioAssay AID2305 (GlaxoSmithKline (GSK), 2010).
